Test results reported in patent US20220132839A1, “MOSQUITO ATTRACTANT COMPOSITIONS” (UNIVERSITY OF WASHINGTON, priority 2019, published 2022).
“Also recorded” adds a separate entry of the source.

Columns and labels:
[1] = tested on: Aedes mosquitoes; test: GC-EAD antennal responses, Aedes mosquitoes from the field
Text: (§1) Electroantennogram signals were filtered and amplified (100×; 0.1-500 Hz) using an A-M 1800 amplifier (Sequim, Wash., USA) connected to a personal computer via a BNC-2090A analog-to-digital board (National Instruments, Austin, Tex., USA) and digitized at 20 Hz using WinEDR software (Strathclyde Electrophysiology Software, Glasgow, UK). A Hum Bug noise eliminator (Quest Scientific, Vancouver, Canada) was used to decrease electrical noise. The antennal responses to peaks eluting from the GC were measured for each mosquito preparation, and each peak and mosquito species. Bioactive peaks were those that elicited strong EAD responses, corresponding to deflections beyond the average noise floor of the baseline EAD signal. Responses by each individual preparation were used for Principal Component Analysis (Ade4 package, R). The responses of eight different mosquito species were tested to the scent extracts of three orchid species (n=8 mosquito species for P. obtusata; n=4 mosquito species each for P. stricta and P. huronensis; with 3-17 replicates per mosquito species per orchid, for a total of 109 GC-EAD experiments).
Individual mosquitoes were isolated in Falcon™ tubes (Thermo Fisher Scientific, Pittsburgh, Pa., USA) covered with a piece of fine mesh. They were maintained in a climatic chamber, as previously described, and identified immediately before running the experiment. Carbon dioxide delivered through a pad (Genesee Scientific, San Diego, Calif., USA) was used to briefly anesthetize mosquitoes before transferring them on ice for the dissection. The head was excised and the tip (i.e., one segment) of each antenna was cut off with fine scissors under a binocular microscope (Carl Zeiss, Oberkochen, Germany). The head was then mounted on an electrode composed of a silver wire 0.01″ (A-M Systems, Carlsbord, Wash., USA) and a borosilicate pulled capillary (Sutter Instrument Company, Novato, Calif., USA) filled with a 1:3 mix of saline (L. B. Thien, F. Utech, The mode of pollination in Habenaria obtusata (Orchidaceae). American Journal of Botany 57, 1031-1035 (1970) and electrode gel (Parker Laboratories, Fairfield, N.J., USA) in order to avoid the preparation to desiccate during the experiment. The head was mounted by the neck on the reference electrode. The preparation was then moved to the GC-EAD with the tips of the antennae inserted under the microscope (Optiphot-2, Nikon, Tokyo, Japan) into a recording electrode, that was identical to the reference electrode. The mounted antennae were oriented at 90° from the main airline which was carrying filtered air (Praxair, Danbury, Conn., USA) and volatiles eluting from the Gas-Chromatograph to the preparation via a 200° C. transfer line (EC-05; Syntech GmbH, Buchenbach, Germany). Five microliters of the orchid extract were injected into the Gas Chromatograph with Flame Ionization Detection (Agilent 7820A GC, Agilent Technologies; DB5 column, J&W Scientific, Folsom, Calif., USA). The oven program was the same as the one used for the GC-MS analyses of the scent extracts. The transfer line from the GC to the preparation was set to 200° C.

[2] = tested on: Culiseta mosquitoes; test: GC-EAD antennal responses, Culiseta mosquitoes; set-up: species or system Culiseta sp.; conditions: peaks of the P. obtusata scent
Text: as §1
Individual mosquitoes were isolated in Falcon™ tubes (Thermo Fisher Scientific, Pittsburgh, Pa., USA) covered with a piece of fine mesh. They were maintained in a climatic chamber, as previously described, and identified immediately before running the experiment. […]

[3] = tested on: Ae. increpitus mosquito antennal lobe (AL) glomeruli; test: Two-photon calcium imaging (Fluo4) of the antennal lobe, Ae. increpitus; type: in vivo
Procedure: Odor-evoked responses in the Ae. increpitus mosquito antennal lobe (AL) with nine female mosquitoes at the beginning of the season when mosquitoes were relatively young (as defined by wing and scale appearance). Calcium imaging experiments were conducted using application of the calcium indicator Fluo4 to the mosquito brain and using a stage that allows simultaneous calcium imaging and tethered flight. The mosquito was cooled on ice and transferred to a Peltier-cooled holder that enables the mosquito to head to be fixed to the stage using ultraviolet glue. The custom stage permits the superfusion of saline to the head capsule and space for movement by the wings and proboscis. Once the mosquito was fixed to the stage, a window in its head was cut to expose the brain, and the brain was continuously superfused with physiological saline. Next, the perineural sheath was gently removed from the AL using fine forceps and 75 μL of the Fluo4 solution—made by […] of Fluo4 in 30 μL Pluronic F-127 and then subsequently diluted in 950 μL of mosquito physiological saline—was pipetted to the holder allowing the brain to be completely immersed in the dye. Mosquitoes were kept in the dark at 15° C. for 1.5 h (the appropriate time for adequate penetration of the dye into the tissue), after which the brain was washed 3 times with physiological saline. After the rinse, mosquitoes were kept in the dark at room temperature for approximately 10-20 min. before imaging.
Wing stroke amplitudes were acquired and analyzed using a custom camera-based computer vision system at frame rates of 100 Hz, where the mosquito was illuminated with infrared LEDs (880 nm) and images were collected with an infrared-sensitive camera synched to the two-photon system. Stimulus-evoked initiation of flight and changes in the amplitude of the wing-stroke envelope were characterized for each odor stimulus. Calcium-evoked responses in the AL were imaged using the Prairie Ultima IV two-photon excitation microscope (Prairie Technologies) and Ti-Sapphire laser (Chameleon Ultra; Coherent). Experiments were performed at a depth of 40 μm from the ventral surface of the AL, allowing the calcium dynamics from approximately 18-22 glomeruli to be repeatedly imaged across preparations. Images were collected at 2 Hz, and for each odor stimulus images were acquired for 35 s, starting 10 s before the stimulus onset. Imaging data were extracted in Fiji/ImageJ and imported into Matlab (v2017; Mathworks, Natick, Mass.) for Gaussian filtering (2×2 pixel; σ=1.5-3) and alignment using a single frame as the reference at a given imaging depth and subsequently registered to every frame to within ¼ pixel. Trigger-averaged ΔF/F was used for comparing glomerular responses between odor stimuli. […]

What does the source list for `CCCCCCCCC=O` [nonanal]?
antennal responses (GC-EAD) ([1]; peaks of the P. obtusata scent): evoked antennal responses; also recorded: consistent responses and one of the strongest relative responses; antennal responses (GC-EAD) ([1]; scents of P. stricta and P. huronensis, Ae. increpitus, Ae. communis, Ae. canadensis and Culiseta sp.): all responded; antennal responses (GC-EAD) [2]: very little response; AM2 glomerulus response ([3]; odor stimulation): often exhibited inhibition; LC2 glomerulus response ([3]; single odorants): strongest response
